Entries after “also recorded” stand apart in the source; their conditions may differ. Like-named read-outs stand apart in the source and are kept apart here.
Tests used:
[1] = biological target: T1, isolated HNE (human neutrophil elastase) (Homo sapiens, UniProt P08246); assay: Inhibition of isolated HNE, steady-state kinetics (MeOSuc-AAPV-AMC); format: biochemical; settings: for Ki: HNE 0.5 nM, incubated 1 h 37 °C, Morrison fit, mean ± SD, compound 5b in phosphate buffer pH 7.4; for inhibition of HNE (in words): negative controls
T1 construct: immediately processed to its active form in the trans-Golgi before being targeted to azurophil granules; purchased Merck (Darmstadt, Germany) 324681
T1 sequence (P08246 30-267): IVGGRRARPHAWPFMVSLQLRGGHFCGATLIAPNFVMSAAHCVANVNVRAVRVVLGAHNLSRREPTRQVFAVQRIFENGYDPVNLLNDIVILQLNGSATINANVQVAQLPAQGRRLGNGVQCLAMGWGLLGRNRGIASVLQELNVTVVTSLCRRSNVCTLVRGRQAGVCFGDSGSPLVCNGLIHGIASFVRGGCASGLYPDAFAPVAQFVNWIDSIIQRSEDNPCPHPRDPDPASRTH
Method: (§1) To determine the inhibition constants of reversible inhibitors with isolated HNE and HNE in cell lysates, HNE (0.5 nM) and U937 lysates (1000 cells/µL) were incubated with serial dilutions of the compounds in assay buffer at 37 °C for ≥ 1 h. Subsequently, residual HNE activity was measured as described above and compared to the activity of uninhibited HNE. […] The inhibition curves generated were fitted to Morrisons’s equation to obtain the dissociation equilibrium constant Ki with pro-Fit (Quantum Soft, Uetikon am See, Switzerland) using a Levenberg–Marquardt algorithm.

HNE in U937 lysates = biological target: T2, HNE in U937 lysates (Homo sapiens, UniProt P08246); assay: Inhibition of HNE activity in U937 lysates; format: biochemical; settings: U937 lysate 1000 cells/µL, incubated 1 h 37 °C, Morrison fit, mean ± SD
T2 construct: the myeloid cell line U937, which can differentiate into neutrophils [25] and expresses HNE; host or cells: U937 (histiocytic lymphoma), undifferentiated
T2 sequence (P08246 30-247 limits assumed): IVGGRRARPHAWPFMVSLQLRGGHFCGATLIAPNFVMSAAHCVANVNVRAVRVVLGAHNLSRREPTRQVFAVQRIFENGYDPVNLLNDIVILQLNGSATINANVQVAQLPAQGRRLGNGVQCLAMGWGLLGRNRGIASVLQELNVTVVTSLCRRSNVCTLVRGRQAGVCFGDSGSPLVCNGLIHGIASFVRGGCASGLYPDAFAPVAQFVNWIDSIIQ
Method: For the quantification and characterization of HNE-like activity in cell lysates, the density of the sample cell suspension was first quantified using a CASY-1 cell counter.
as §1

HNE in U937 cells = biological target: T3, HNE in U937 cells (Homo sapiens, UniProt P08246); assay: Intracellular HNE inhibition in cultured U937 cells (residual activity in lysates); format: cell-based; settings: for time course of HNE inhibition in U937 cells (in words): 0-26 h culture
T3 construct: the myeloid cell line U937, which can differentiate into neutrophils [25] and expresses HNE; host or cells: U937 (histiocytic lymphoma), undifferentiated
T3 sequence (P08246 30-247 limits assumed): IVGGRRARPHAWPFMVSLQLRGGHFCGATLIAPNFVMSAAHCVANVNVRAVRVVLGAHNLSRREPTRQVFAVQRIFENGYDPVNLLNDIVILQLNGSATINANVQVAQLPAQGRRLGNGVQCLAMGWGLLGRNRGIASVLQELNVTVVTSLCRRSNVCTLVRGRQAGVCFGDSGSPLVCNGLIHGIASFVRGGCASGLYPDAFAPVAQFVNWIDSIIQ
Method: (§2) The enzymatic activity of HNE was measured using a fluorescence-based assay in 96-well black bottom plates (Corning®, 003916, New York, NY, USA). HNE (0.5 nM) or cell lysates (20 µL, ~100 PMN/µL, ~1000 U937/µL, ~5000 HL-60/µL or ~1000 HMC-1/µL) were diluted in assay buffer (200 mM TRIS HCl, 500 mM NaCl, 0.05% Tween-20, pH 8.0). […] AMC (7-Amino-4-methylcoumarin) standard curves were generated by measuring serial dilutions of the fluorophore AMC (1 µM–0 µM) in assay buffer on the same plate and used to calculate nM AMC generation from fluorescence measurements.
(§3) U937 cells were plated in sterile 96-U-well plates (92697, TPP, Trasadingen, Switzerland) at a density of 100 cells/µL in a cell culture medium (180 µL per well). Increasing concentrations of inhibitors and solvent controls were diluted in a culture medium and added (20 µL/well) to the 96-well plate 26 h, 6 h, 3 h, and 0 h before harvesting and lysing the cells (see below). Plates were kept at 37 °C, 5% CO2, and 95% humidity throughout the incubation period. […] Similarly, freshly isolated PMN were plated at 50–100 cells/µL in PBS (1 g/L glucose) and incubated for 1 h with inhibitors or controls.
(§4) For cell lysis, cells were pelleted in the microtiter plates by centrifugation (400× g, 10 min, 4 °C) and washed three times in PBS (4 °C). Washed cells were then lysed by adding lysis buffer (PBS, 1 M NaCl, 0.1% Tween-20, pH 7.4) and freeze–thawing on dry ice. Finally, lysates were centrifuged (2100× g) to remove cell debris. Enzymatic activity of HNE was determined as described above, and residual activity present after incubation with inhibitors expressed as % of matched solvent controls.

isolated HNE [2] = biological target: T4, isolated HNE (Homo sapiens, UniProt P08246); assay: Formation and dissociation of the HNE/inhibitor complex (pre-steady-state kinetics); format: biochemical
T4 construct: immediately processed to its active form in the trans-Golgi before being targeted to azurophil granules; purchased Merck (Darmstadt, Germany) 324681
T4 sequence (P08246 30-267): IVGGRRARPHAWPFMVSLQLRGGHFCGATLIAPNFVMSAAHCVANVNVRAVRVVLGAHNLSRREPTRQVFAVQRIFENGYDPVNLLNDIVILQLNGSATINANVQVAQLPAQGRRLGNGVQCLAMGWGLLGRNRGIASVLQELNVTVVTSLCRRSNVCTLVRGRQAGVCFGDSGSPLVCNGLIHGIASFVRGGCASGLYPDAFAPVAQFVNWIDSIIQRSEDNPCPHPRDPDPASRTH
Method: To determine the association rates (kon) of the inhibitors, the enzymatic activity of HNE (0.6 nM) was recorded continuously in an SFM25 fluorometer (Biotek Kontron, Neufahrn, Germany) by following the cleavage of MeOSuc-AAPV-AMC (10 µM) at 37 °C. When a constant rate was established (i.e., after 1–5 min), an inhibitor was added, and the reaction followed for up to 60 min. The pseudo-first-order rate constant kobs was obtained by fitting the observed presteady-state progress curve to the integrated equation of Morrison with pro-Fit. Apparent second-order rate constants were subsequently calculated as k2/Ki = kobs/It by linear regression from several independent experiments using a range of concentrations. For reversible inhibitors, the dissociation rate koff was subsequentially calculated as koff = Ki × kon; for irreversible inhibitors, koff is ≈ zero. Finally, the halftime of the HNE/inhibitor complex formation and dissociation were calculated as t1/2,on = 0.693/(kass × It + koff) and t1/2,off = 0.693/koff, respectively.

isolated HNE [3] = biological target: T4, isolated HNE; set-up: method as in PMID 21791628; settings: cited from earlier work
HNE in mature PMN = biological target: T5, HNE in mature PMN (Homo sapiens, UniProt P08246); assay: Intracellular HNE inhibition in freshly isolated mature PMN; settings: for potency in PMN compared with U937 cells (in words): PMN 1 h vs U937 0-3 h
T5 sequence (P08246 30-247 limits assumed): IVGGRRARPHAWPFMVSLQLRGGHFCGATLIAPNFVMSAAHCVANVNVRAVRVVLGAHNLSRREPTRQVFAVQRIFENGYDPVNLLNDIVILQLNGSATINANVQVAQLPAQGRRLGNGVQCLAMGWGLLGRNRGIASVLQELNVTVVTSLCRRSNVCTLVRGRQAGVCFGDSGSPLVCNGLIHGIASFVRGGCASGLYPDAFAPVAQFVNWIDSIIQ
Method: Peripheral venous blood was collected from six healthy donors after informed consent (votum 018-09 of the local ethics committee), and differential blood counts were performed. Neutrophil granulocytes were isolated using the MACSxpress neutrophil isolation kit (Miltenyi Biotec, Bergisch Gladbach, Germany) following the manufacturer’s instructions. Residual erythrocytes were eliminated by hypotonic lysis. Neutrophils were resuspended in PBS with glucose (1 g/L) at a density of 50–100 cells/µL. The purity of the final cell population was analyzed by staining a smear using Pappenheim’s method and counting ≥200 cells using a light microscope.
as §2, §3, §4

Structure (SMILES)	Ki [1]	Ki (HNE in U937 lysates)	inhibition of HNE (in words) [1]	time course of HNE inhibition in U937 cells (in words) (HNE in U937 cells)	potency in PMN compared with U937 cells (in words) (HNE in mature PMN)	other results
Cc1c(-c2ccnn2C)cc(C(=O)NCc2ccc(S(C)(=O)=O)cn2)c(=O)n1-c1cccc(C(F)(F)F)c1 [Alvelestat, alvelestat]	0.009 µM	0.011 µM	–	–	–	effect on HNE activity in the U937 cell culture model (in words) (HNE in U937 cells; 0-26 h, increasing concentrations, alvelestat and sivelestat up to more than 1000-fold above Ki): no detectable effect; also recorded: no measurable effect; also recorded: do not cause detectable intracellular inhibition; half-life of the complex with HNE (in words) (isolated HNE [2]): seconds to a few minutes; koff (isolated HNE [3]): 0.057 s⁻¹; kon (isolated HNE [3]; too fast to be recorded with authors' setup): 7e+06 M⁻¹ s⁻¹; effect on HNE in mature PMN (in words) (HNE in mature PMN; 1 h incubation): negligible effect
N=C(N)c1ccccc1 [Benzamidine, benzamidine]	> 1000 µM	> 1000 µM	no inhibition	–	–	–
CN(C(=O)c1cc2ccccc2cc1C(=O)C(c1cccc2ccccc12)P(=O)(O)O)C1CCN(C(=O)c2ccccc2)CC1 (centres unmarked) [Cathepsin G Inhibitor]	> 10 µM	–	no inhibition	–	–	–
CCC[C@@H](NC(=O)N1C(=O)C(CC)(CC)[C@@H]1Oc1ccc(C(=O)N2CCN(C)CC2)cc1)c1ccc2c(c1)OCO2 [DMP 777]	0.00025 µM	0.00034 µM	–	inhibit HNE in U937 cells increasingly over the 26 h observation period	somewhat less potent	koff (isolated HNE [2]; koff = Ki × kon, irreversible inhibitors ≈ zero): 0.00012 s⁻¹; kon (isolated HNE [2]; pre-steady-state kinetics, HNE 0.6 nM, 37 °C, mean ± SD): 4.9 ± 0.4 × 10^5 M^−1 s^−1
CC(C)[C@@H]1C(=O)N(S(C)(=O)=O)[C@@H]2CCN(C(=O)/C=C/CN3CCCCC3)[C@H]21 [GW311616]	–	–	–	inhibit HNE in U937 cells increasingly over the 26 h observation period	somewhat less potent	–
